The target in this assay is T1, MAGL (Homo sapiens, UniProt Q99685).
T1 sequence (Q99685 1-303): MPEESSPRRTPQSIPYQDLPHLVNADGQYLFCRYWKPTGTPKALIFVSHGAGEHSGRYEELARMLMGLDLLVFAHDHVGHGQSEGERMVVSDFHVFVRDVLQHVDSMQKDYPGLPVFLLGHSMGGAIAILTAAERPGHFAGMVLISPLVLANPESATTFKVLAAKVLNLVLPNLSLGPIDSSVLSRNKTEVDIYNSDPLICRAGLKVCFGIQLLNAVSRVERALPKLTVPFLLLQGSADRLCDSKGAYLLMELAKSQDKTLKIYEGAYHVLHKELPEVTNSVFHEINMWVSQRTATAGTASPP
In words: 2-AG assay (MAGL inhibitory activity, hydrolysis of 2-arachidonoylglycerol followed by mass spectrometry). Type of assay: biochemical. The settings on record: 50 pM MAGL, 8 μM 2-arachidonoylglycerol, 15 min preincubation, 30 min incubation at RT, concentration range 12.5 μM to 0.8 pM. Here is the method:
Compounds were profiled for MAGL inhibitory activity by determining the enzymatic activity by following the hydrolysis of the natural substrate 2-arachidonoylglycerol resulting in arachidonic acid, which can be followed by mass spectrometry. This assay is hereinafter abbreviated “2-AG assay”.
The 2-AG assay was carried out in 384 well assay plates (PP, Greiner Cat #784201) in a total volume of 20 μL. Compound dilutions were made in 100% DMSO (VWR Chemicals 23500.297) in a polypropylene plate in 3-fold dilution steps to give a final concentration range in the assay from 12.5 μM to 0.8 pM. 0.25 μL compound dilutions (100% DMSO) were added to 9 μL MAGL in assay buffer (50 mM TRIS (GIBCO, 15567-027), 1 mM EDTA (Fluka, 03690-100 mL), 0.01% (v/v) Tween. After shaking, the plate was incubated for 15 min at RT. To start the reaction, 10 μL 2-arachidonoylglycerol in assay buffer was added. The final concentrations in the assay was 50 pM MAGL and 8 μM 2-arachidonoylglyerol. After shaking and 30 min incubation at RT, the reaction was quenched by the addition of 40 μL of ACN containing 4 μM of d8-arachidonic acid. The amount of arachidonic acid was traced by an online SPE system (Agilent Rapidfire) coupled to a triple quadrupole mass spectrometer (Agilent 6460). A C18 SPE cartridge (G9205A) was used in an ACN/water liquid setup. The mass spectrometer was operated in negative electrospray mode following the mass transitions 303.1→259.1 for arachidonic acid and 311.1→267.0 for d8-arachidonic acid. The activity of the compounds was calculated based on the ratio of intensities [arachidonic acid/d8-arachidonic acid].

pIC50: −log10 of the molar value.

For orientation: pIC50 means the IC50 on a negative log10 scale, so that one unit is a factor of ten. Higher therefore signals a small IC50.

`O=C(CCCc1cnn[nH]1)N1CC(c2ccc(N3CCC(C(F)(F)F)C3)nc2)C1` (racemic) [Example 45, rac-4-(1H-Triazol-5-yl)-1-[3-[6-[3-(trifluoro-methyl)pyrrolidin-1-yl]-3-pyridyl]azetidin-1-yl]butan-1-one] had a negative-log IC50 (pIC50) of 6.49.
For `O=C1CCC(CCC(=O)N2CC(c3ccc(CC(F)(F)F)cc3)C2)N1` (single isomer, unassigned) [Example 7, (−)- or (+)-5-[3-Oxo-3-[3-[4-(2,2,2-trifluoroethyl)phenyl]azetidin-1-yl]propyl]pyrrolidin-2-one], the pIC50 was 5.59.
As for `O=C1CCC(CCC(=O)N2CC(c3ccc(CC(F)(F)F)cc3)C2)N1` (single isomer, unassigned) [Example 8, (+)- or (−)-5-[3-Oxo-3-[3-[4-(2,2,2-trifluoroethyl)phenyl]azetidin-1-yl]propyl]pyrrolidin-2-one], the figure is 7.59; as for `CC1(CCC(=O)N2CC(OCc3ccc(C(F)(F)F)cc3F)C2)CCC(=O)N1` (single isomer, unassigned) [Example 13, (−)- or (+)-5-[3-[3-[[2-Fluoro-4-(trifluoromethyl)phenyl]methoxy]azetidin-1-yl]-3-oxo-propyl]-5-methyl-pyrrolidin-2-one], at most 4.90.
As for `CC1(CCC(=O)N2CC(c3ccc(C4(C(F)(F)F)CC4)cc3)C2)CCC(=O)N1` (single isomer, unassigned) [Example 15, (−)- or (+)-5-Methyl-5-[3-oxo-3-[3-[4-[1-(trifluoromethyl)cyclopropyl]phenyl]azetidin-1-yl]propyl]pyrrolidin-2-one], the figure is at most 4.90; as for `CC1(CCC(=O)N2CC(c3ccc(C4(C(F)(F)F)CC4)cc3)C2)CCC(=O)N1` (single isomer, unassigned) [Example 16, (+)- or (−)-5-Methyl-5-[3-oxo-3-[3-[4-[1-(trifluoromethyl)cyclopropyl]phenyl]azetidin-1-yl]propyl]pyrrolidin-2-one], 6.67; as for `CC1(CCC(=O)N2CC(c3ccc(Oc4cccc(Cl)c4)nc3)C2)CCC(=O)N1` (single isomer, unassigned) [Example 17, (−)- or (+)-5-[3-[3-[6-(3-Chlorophenoxy)-3-pyridyl]azetidin-1-yl]-3-oxo-propyl]-5-methyl-pyrrolidin-2-one], at most 4.90.
`CC1(CCC(=O)N2CC(c3ccc(Oc4cccc(Cl)c4)nc3)C2)CCC(=O)N1` (single isomer, unassigned) [Example 18, (+)- or (−)-5-[3-[3-[6-(3-Chlorophenoxy)-3-pyridyl]azetidin-1-yl]-3-oxo-propyl]-5-methyl-pyrrolidin-2-one] had a negative-log IC50 (pIC50) of 5.57.
As for `CS(=O)(=O)c1ccc(C(c2ccccc2)C2CCN(C(=O)CC[C@@H]3COC(=O)N3)CC2)cc1` (single isomer, unassigned) [Example 83, (+)- or (−)-(4R)-4-[3-[4-[(4-Methyl-sulfonylphenyl)-phenyl-methyl]-1-piperidyl]-3-oxo-propyl]oxazolidin-2-one], the figure is 7.36; as for `CS(=O)(=O)c1ccc(C(c2ccccc2)C2CCN(C(=O)CC[C@@H]3COC(=O)N3)CC2)cc1` (single isomer, unassigned) [Example 84, (−)- or (+)-(−)-(4R)-4-[3-[4-[(4-Methyl-sulfonylphenyl)-phenyl-methyl]-1-piperidyl]-3-oxo-propyl]oxazolidin-2-one], 6.53; as for `O=C1NC(COC(=O)N2CC(c3ccc(N4CCC(C(F)(F)F)C4)nc3)C2)CO1` (single isomer, unassigned) [Example 86, (−)- or (+)-[(4S)-2-Oxooxazolidin-4-yl]methyl 3-[6-[3-(trifluoromethyl)pyrrolidin-1-yl]-3-pyridyl]azetidine-1-carboxylate], 7.27.
Turning to `O=C1NC(COC(=O)N2CC(c3ccc(N4CCC(C(F)(F)F)C4)nc3)C2)CO1` (single isomer, unassigned) [Example 87, (+)- or (−)-[(4S)-2-Oxooxazolidin-4-yl]methyl 3-[6-[3-(trifluoromethyl)pyrrolidin-1-yl]-3-pyridyl]azetidine-1-carboxylate], the pIC50 is 7.49.
`O=C1N[C@H](CCC(=O)N2CC(c3ccc([C@H]4CC[C@@H](C(F)(F)F)CC4)nc3)C2)CO1` (single isomer, unassigned) [Example 200]: the pIC50 was 9.00.
Turning to `O=C1N[C@H](CCC(=O)N2CC(c3ccc([C@H]4CC[C@H](C(F)(F)F)CC4)nc3)C2)CO1` (single isomer, unassigned) [Example 201], the pIC50 is 8.05.
Then `O=C1N[C@H](CCC(=O)N2CC(c3ccc(N4CCC(O)(C(F)(F)F)C4)nc3)C2)CO1` (single isomer, unassigned) [Example 204, (−)- or (+)-(4R)-4-[3-[3-[6-[3-Hydroxy-3-(trifluoromethyl)pyrrolidin-1-yl]-3-pyridyl]azetidin-1-yl]-3-oxo-propyl]oxazolidin-2-one], with 7.01; and `O=C1N[C@H](CCC(=O)N2CC(c3ccc(N4CCC(C(F)(F)F)C4)nc3)C2)CO1` (single isomer, unassigned) [Example 206], with 7.80.
Then `O=C1N[C@H](CCC(=O)N2CC(c3cnc(N4CCC(C(F)(F)F)C4)nc3)C2)CO1` (single isomer, unassigned) [Example 208, (−)- or (+)-(4R)-4-[3-Oxo-3-[3-[2-[3-(trifluoromethyl)pyrrolidin-1-yl]pyrimidin-5-yl]azetidin-1-yl]propyl]oxazolidin-2-one], with 6.86.
Then `O=C1NC(CCC(=O)N2CC(c3cnc(N4CCC(C(F)(F)F)C4)nc3)C2)CO1` (single isomer, unassigned) [Example 209, (+)- or (−)-(4R)-4-[3-Oxo-3-[3-[2-[3-(trifluoromethyl)pyrrolidin-1-yl]pyrimidin-5-yl]azetidin-1-yl]propyl]oxazolidin-2-one], with 6.88; and `O=C1N[C@H](CCC(=O)N2CC3(CCC(Cc4ccc(C(F)(F)F)nc4)C3)C2)CO1` (single isomer, unassigned) [Example 210, (−)- or (+)-(4R)-4-[3-Oxo-3-[6-[[6-(trifluoromethyl)-3-pyridyl]methyl]-2-azaspiro[3.4]octan-2-yl]propyl]oxazolidin-2-one], with 7.23; and `O=C1NC(CCC(=O)N2CC3(CCC(Cc4ccc(C(F)(F)F)nc4)C3)C2)CO1` (single isomer, unassigned) [Example 211, (+)- or (−)-(4R)-4-[3-Oxo-3-[6-[[6-(trifluoromethyl)-3-pyridyl]methyl]-2-azaspiro[3.4]octan-2-yl]propyl]oxazolidin-2-one], with 7.08.
Consider `CS(=O)(=O)c1cc(Cl)ccc1-c1ccc(C2CN(C(=O)CCC3CNC(=O)N3)C2)cc1` (single isomer, unassigned) [Example 217, (−)- or (+)-4-[3-[3-[4-(4-Chloro-2-methylsulfonyl-phenyl)phenyl]azetidin-1-yl]-3-oxo-propyl]imidazolidin-2-one], for which the negative logarithm of the IC50 (pIC50) is 7.48.
For `CS(=O)(=O)c1cc(Cl)ccc1-c1ccc(C2CN(C(=O)CCC3CNC(=O)N3)C2)cc1` (single isomer, unassigned) [Example 218, (+)- or (−)-4-[3-[3-[4-(4-Chloro-2-methylsulfonyl-phenyl)phenyl]azetidin-1-yl]-3-oxo-propyl]imidazolidin-2-one], the pIC50 is 5.92.
`O=C1CCC(CCC(=O)N2CC(OCc3ccc(C(F)(F)F)cc3F)C2)N1` (single isomer, unassigned; (+)) [Example 2, (+)-5-[3-[3-[[2-Fluoro-4-(trifluoromethyl)phenyl]methoxy]azetidin-1-yl]-3-oxo-propyl]pyrrolidin-2-one] gave a pIC50 of 7.72.
The compound `CC(C)(C)c1ccc(C2CN(C(=O)CCC3CCC(=O)N3)C2)cc1` (single isomer, unassigned; (+)) [Example 4, (+)-5-[3-[3-(4-tert-Butylphenyl)azetidin-1-yl]-3-oxo-propyl]pyrrolidin-2-one] showed a pIC50 of 8.30.
Then `O=C1CCC(CCC(=O)N2CC(c3ccc(C4(C(F)(F)F)CC4)cc3)C2)N1` (single isomer, unassigned; (+)) [Example 6, (+)-5-[3-Oxo-3-[3-[4-[1-(trifluoromethyl)cyclopropyl]phenyl]azetidin-1-yl]propyl]pyrrolidin-2-one], with 8.52.
`O=C1CCC(CCC(=O)N2CC(c3ccc(-c4ccc(F)cc4F)cc3)C2)N1` (single isomer, unassigned; (+)) [Example 10, (+)-5-[3-[3-[4-(2,4-Difluorophenyl)phenyl]azetidin-1-yl]-3-oxo-propyl]pyrrolidin-2-one]: the negative-log IC50 (pIC50) is 8.30.

Values taken from patent US11981661B2, “Heterocyclic compounds” (Hoffmann-La Roche Inc., priority 2020, dated 2024).
